Test results: ChEMBL document CHEMBL4507327 (2021); call rule not given here
pIC50: −log10 of the molar value.

How the values were obtained:
[1] = molecular target: 5-hydroxytryptamine receptor 2B (Homo sapiens) (UniProt P41595); settings: Compound concentration 10.0 uM
[2] = molecular target: D(3) dopamine receptor (Homo sapiens) (UniProt P35462); settings: Compound concentration 10.0 uM
[3] = molecular target: D(4) dopamine receptor (Homo sapiens) (UniProt P21917); settings: Compound concentration 10.0 uM
[4] = molecular target: Histamine H1 receptor (Homo sapiens) (UniProt P35367); settings: Compound concentration 10.0 uM
[5] = molecular target: T1, Alpha-1A adrenergic receptor (Homo sapiens) (UniProt P35348); settings: Compound concentration 10.0 uM
T1 sequence (whole entry): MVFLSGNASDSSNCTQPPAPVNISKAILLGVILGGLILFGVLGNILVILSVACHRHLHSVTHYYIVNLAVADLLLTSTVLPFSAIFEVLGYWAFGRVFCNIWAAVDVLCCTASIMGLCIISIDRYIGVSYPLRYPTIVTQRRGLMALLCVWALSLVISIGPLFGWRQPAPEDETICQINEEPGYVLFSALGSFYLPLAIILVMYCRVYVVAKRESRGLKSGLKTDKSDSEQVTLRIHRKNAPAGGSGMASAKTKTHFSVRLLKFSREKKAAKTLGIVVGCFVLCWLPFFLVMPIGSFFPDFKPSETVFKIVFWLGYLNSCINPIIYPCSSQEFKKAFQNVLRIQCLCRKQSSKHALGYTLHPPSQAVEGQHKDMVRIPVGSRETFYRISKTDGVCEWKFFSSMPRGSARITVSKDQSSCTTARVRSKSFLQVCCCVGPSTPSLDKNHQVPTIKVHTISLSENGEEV

Oryctolagus cuniculus = species on record: Oryctolagus cuniculus; settings: Compound concentration 10.0 uM
hERG (KCNH2) = hERG (KCNH2) (Homo sapiens, UniProt Q12809); assay: Inhibition of Potassium Channel hERG at 10 µM in the Eurofins-Panlabs radioligand binding assay (Eurofins_assay_265900); parameters: ligand concentration 1.5 nM, non-specific ligand with concentration Astemizole, incubation time 60 min, incubation temperature 25 °C; settings: HEK-293 cells that express human recombinant hERG, probe [3H] Astemizole, compound concentration 10 uM
hERG (KCNH2), sequence (Q12809 whole entry): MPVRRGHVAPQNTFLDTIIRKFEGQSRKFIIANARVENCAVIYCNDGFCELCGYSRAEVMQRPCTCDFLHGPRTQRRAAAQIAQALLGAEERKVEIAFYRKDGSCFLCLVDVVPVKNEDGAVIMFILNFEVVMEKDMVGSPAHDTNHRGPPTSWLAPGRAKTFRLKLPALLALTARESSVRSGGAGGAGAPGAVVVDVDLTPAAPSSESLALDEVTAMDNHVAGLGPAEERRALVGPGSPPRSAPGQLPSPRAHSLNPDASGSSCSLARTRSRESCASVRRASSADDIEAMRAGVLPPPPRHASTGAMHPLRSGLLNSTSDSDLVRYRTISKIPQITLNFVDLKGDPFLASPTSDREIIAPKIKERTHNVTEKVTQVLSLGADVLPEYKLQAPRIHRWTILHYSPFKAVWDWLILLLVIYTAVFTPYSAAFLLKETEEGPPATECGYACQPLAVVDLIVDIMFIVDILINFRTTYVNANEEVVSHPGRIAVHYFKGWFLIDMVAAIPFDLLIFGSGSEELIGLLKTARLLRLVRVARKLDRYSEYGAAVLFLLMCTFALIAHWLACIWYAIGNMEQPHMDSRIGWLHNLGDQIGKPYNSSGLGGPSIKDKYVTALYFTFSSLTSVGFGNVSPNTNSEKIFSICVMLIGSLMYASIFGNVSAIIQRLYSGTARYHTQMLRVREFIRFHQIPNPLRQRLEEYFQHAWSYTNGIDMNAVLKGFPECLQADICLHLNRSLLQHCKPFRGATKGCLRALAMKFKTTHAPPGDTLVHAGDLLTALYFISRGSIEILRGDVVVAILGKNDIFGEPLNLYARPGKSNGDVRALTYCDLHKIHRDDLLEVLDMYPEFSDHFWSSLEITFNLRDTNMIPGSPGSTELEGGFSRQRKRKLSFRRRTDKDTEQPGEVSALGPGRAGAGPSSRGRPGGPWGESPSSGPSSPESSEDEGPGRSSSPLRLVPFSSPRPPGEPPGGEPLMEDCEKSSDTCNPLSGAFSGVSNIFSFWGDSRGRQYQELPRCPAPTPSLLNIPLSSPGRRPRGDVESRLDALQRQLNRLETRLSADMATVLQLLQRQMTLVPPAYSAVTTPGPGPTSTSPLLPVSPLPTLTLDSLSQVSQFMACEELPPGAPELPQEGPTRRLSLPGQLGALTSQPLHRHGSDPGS

[6] = molecular target: AP2-associated protein kinase 1 (Homo sapiens, UniProt Q2M2I8); assay: AAK1(AAK1LGF1) Takeda global kinase panel
AP2-associated protein kinase 1, sequence (Q2M2I8 whole entry): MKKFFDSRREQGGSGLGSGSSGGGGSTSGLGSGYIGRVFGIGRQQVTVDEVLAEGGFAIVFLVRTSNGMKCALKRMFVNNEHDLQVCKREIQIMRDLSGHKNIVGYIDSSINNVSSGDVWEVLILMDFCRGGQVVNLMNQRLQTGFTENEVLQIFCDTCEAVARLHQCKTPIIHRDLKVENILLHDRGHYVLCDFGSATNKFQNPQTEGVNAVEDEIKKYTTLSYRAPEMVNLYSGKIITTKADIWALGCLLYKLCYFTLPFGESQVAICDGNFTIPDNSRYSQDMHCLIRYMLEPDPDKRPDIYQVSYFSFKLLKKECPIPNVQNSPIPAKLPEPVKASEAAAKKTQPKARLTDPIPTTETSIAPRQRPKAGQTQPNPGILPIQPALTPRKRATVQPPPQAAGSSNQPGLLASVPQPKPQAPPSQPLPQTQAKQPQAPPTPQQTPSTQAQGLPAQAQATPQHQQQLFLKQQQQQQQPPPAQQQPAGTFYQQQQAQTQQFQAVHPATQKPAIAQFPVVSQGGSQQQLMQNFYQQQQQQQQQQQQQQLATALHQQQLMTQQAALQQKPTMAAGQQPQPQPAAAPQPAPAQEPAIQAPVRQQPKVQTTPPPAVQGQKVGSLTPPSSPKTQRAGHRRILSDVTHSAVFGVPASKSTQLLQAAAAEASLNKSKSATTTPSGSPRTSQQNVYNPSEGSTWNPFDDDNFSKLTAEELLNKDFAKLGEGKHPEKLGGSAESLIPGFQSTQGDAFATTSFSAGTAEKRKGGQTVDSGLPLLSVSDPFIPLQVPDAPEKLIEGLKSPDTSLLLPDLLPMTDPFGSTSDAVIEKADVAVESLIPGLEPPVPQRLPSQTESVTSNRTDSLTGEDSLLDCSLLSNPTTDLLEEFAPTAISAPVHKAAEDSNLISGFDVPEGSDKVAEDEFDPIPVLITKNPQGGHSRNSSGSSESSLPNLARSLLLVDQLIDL

[7] = molecular target: Calcium/calmodulin-dependent protein kinase type 1D (Homo sapiens, UniProt Q8IU85); assay: CaMK1delta(CA1DLGT5) Takeda global kinase panel
[8] = molecular target: Epithelial discoidin domain-containing receptor 1 (Homo sapiens, UniProt Q08345); assay: DDR1(DDR1LGF1) Takeda global kinase panel
[9] = molecular target: Dual specificity mitogen-activated protein kinase kinase 2 (Homo sapiens, UniProt P36507); assay: MEK2 [MAP2K2(M2K2LGF1)] Takeda global kinase panel
Dual specificity mitogen-activated protein kinase kinase 2, sequence (P36507 whole entry): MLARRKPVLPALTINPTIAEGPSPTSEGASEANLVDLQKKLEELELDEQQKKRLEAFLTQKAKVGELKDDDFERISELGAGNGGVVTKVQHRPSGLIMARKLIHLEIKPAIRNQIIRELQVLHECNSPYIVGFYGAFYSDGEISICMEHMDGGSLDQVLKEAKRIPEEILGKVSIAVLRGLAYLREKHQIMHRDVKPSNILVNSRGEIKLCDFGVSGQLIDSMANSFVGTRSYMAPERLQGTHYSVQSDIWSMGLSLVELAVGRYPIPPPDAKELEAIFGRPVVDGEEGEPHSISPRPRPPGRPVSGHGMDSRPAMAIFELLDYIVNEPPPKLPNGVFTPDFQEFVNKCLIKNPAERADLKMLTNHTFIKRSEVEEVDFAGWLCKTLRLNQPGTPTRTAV

[10] = molecular target: Hepatocyte growth factor receptor (Homo sapiens, UniProt P08581); assay: Met([…]) Takeda global kinase panel
[11] = molecular target: cGMP-dependent protein kinase 1 (Homo sapiens, UniProt Q13976); assay: PKG1(PRG1LFP1) Takeda global kinase panel
cGMP-dependent protein kinase 1, sequence (Q13976 whole entry): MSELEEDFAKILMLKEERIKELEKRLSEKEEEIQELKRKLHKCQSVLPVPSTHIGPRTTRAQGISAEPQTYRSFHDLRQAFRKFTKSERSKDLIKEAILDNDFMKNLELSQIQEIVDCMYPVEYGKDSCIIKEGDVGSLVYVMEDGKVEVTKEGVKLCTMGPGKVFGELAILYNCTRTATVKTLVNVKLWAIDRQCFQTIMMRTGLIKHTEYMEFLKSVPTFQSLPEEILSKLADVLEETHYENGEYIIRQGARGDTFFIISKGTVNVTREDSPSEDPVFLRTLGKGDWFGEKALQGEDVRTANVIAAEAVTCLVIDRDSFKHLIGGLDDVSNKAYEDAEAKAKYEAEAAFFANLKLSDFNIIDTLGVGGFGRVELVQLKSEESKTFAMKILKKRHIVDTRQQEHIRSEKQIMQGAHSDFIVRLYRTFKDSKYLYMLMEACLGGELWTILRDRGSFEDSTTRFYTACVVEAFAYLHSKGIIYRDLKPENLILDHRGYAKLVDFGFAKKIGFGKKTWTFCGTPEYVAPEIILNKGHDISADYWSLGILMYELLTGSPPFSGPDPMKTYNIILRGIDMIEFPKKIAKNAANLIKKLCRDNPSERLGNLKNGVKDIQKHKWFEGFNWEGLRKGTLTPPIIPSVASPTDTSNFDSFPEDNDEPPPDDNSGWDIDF

[12] = molecular target: Serine/threonine-protein kinase 25 (Homo sapiens, UniProt O00506); assay: YSK1(ST25LHY1) Takeda global kinase panel
Serine/threonine-protein kinase 25, sequence (O00506 whole entry): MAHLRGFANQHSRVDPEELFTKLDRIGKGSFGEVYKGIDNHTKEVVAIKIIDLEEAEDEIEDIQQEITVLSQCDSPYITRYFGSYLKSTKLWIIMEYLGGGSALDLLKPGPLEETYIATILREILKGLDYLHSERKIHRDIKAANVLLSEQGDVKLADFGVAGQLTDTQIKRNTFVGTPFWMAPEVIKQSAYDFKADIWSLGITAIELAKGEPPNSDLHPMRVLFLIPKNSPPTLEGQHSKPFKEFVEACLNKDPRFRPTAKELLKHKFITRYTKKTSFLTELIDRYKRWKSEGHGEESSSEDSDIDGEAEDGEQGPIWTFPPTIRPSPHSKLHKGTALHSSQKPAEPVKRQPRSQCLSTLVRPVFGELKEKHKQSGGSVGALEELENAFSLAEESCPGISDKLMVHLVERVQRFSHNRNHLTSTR

[13] = molecular target: Serine/threonine-protein kinase 38-like (Homo sapiens, UniProt Q9Y2H1); assay: NDR2(S38LLGF1) Takeda global kinase panel
Serine/threonine-protein kinase 38-like, sequence (Q9Y2H1 whole entry): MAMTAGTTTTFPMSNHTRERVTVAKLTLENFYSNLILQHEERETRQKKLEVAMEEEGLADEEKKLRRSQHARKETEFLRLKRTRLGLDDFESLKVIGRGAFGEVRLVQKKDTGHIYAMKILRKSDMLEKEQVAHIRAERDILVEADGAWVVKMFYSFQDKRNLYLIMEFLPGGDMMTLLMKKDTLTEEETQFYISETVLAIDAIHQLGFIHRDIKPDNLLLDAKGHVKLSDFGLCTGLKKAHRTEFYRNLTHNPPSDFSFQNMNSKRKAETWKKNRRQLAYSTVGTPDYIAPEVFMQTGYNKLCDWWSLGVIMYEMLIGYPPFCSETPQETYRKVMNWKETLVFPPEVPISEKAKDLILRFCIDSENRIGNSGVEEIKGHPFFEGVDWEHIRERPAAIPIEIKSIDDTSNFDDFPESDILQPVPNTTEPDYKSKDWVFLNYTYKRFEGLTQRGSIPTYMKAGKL

[14] = molecular target: Dual specificity testis-specific protein kinase 1 (Homo sapiens, UniProt Q15569); assay: TESK1(TES1LGRA) Takeda global kinase panel
Dual specificity testis-specific protein kinase 1, sequence (Q15569 whole entry): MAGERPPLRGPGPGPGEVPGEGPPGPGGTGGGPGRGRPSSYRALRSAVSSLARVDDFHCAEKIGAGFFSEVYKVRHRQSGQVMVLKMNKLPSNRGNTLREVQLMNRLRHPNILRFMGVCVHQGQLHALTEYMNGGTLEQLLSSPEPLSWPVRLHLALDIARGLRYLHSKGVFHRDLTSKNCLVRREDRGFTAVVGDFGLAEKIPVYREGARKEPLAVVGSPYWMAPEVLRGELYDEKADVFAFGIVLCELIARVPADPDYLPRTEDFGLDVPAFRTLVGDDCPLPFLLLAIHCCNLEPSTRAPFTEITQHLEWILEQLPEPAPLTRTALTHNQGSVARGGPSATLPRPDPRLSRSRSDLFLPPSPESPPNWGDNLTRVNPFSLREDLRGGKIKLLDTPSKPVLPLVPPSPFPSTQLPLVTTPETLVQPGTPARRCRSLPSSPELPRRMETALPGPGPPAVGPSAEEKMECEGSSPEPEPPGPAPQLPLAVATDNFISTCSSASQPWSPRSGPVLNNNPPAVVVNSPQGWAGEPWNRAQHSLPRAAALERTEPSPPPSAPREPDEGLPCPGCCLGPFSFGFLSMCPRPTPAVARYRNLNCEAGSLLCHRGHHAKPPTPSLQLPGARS

Row | pIC50 [6] | pIC50 [7] | pIC50 [8] | pIC50 [9] | pIC50 [10] | pIC50 [11] | pIC50 [12] | pIC50 [13] | pIC50 [14] | SMILES | inhibition [1] [%] | inhibition [2] [%] | inhibition [3] [%] | inhibition [4] [%] | inhibition [5] [%] | inhibition (Oryctolagus cuniculus) [%] | inhibition at 60 min, 10 µM (hERG (KCNH2))
1 |  |  |  |  |  |  |  |  |  | CN1C(=O)[C@@H](N2CCc3cn(Cc4ccccc4)nc3C2=O)COc2ccccc21 [TP-030-1] | 12 | -4.81 | 17.4 | 20.5 | -0.5 | -6 | 
2 | 6.00 | 6.00 | 6.00 | 6.00 | 6.00 | 6.00 | 6.00 | 6.00 | 6.00 | CN1C(=O)[C@@H](N2CCc3cn(CC4CCS(=O)(=O)CC4)nc3C2=O)COc2ccccc21 [TP-030n] |  |  |  |  |  |  | 11% (not active)
